We go through two compounds from article PMC8041751, “Structural basis for an exceptionally strong preference for asparagine residue at the S2 subsite of Stenotrophomonas maltophilia dipeptidyl peptidase 7” (Scientific Reports, 2021).

In general, Ki refers to the equilibrium dissociation constant of an inhibitor or competing ligand from its target. High values mean lower affinity, low ones higher affinity. For orientation: Kd means a measure of binding affinity in units of concentration. Read a high Kd as lower affinity.

Residues, ends and D or L forms follow the SMILES beside them.

One test addresses SmDPP7. As to the kind of experiment: Inhibition assay using dipeptide library, Tyr-Tyr-MCA hydrolysis. It counts as biochemical, Stenotrophomonas maltophilia. The conditions noted are these: for Ki: Xaa-Tyr as competitive inhibitor, substrate 200 µM Tyr-Tyr-MCA, pH 7.0, 298 K, Ki from IC50 by Cheng-Prusoff. The method, then:
Figure 1 Effect of Xaa-Tyr dipeptides on the hydrolytic activity of SmDPP7 towards synthetic substrate Tyr-Tyr-MCA. Inhibition assay was performed as described in “Materials and methods”. Residual activity was measured under conditions where 200 µM Xaa-Tyr dipeptide and 200 µM Tyr-Tyr-MCA, synthetic substrate were added into the reaction solution. […] The standard deviations were obtained from three independent experiments.
The dipeptide library was purchased from AnaSpec (Fremont, CA, US). Ile-Tyr and Arg-Tyr were synthesized by Eurofins Genomics (Tokyo, Japan). Cys-Tyr and Cys-Asp could not be purchased commercially. Different concentrations (3.13, 6.25, 12.5, 25, 50, 100, and 200 µM) of dipeptides as the inhibitor and 200 µM Tyr-Tyr-MCA (GenScript, NJ, US) as the substrate for DPP7 were added into a reaction buffer consisting of 50 mM sodium phosphate buffer pH 7.0, 5 mM EDTA and 0.005% Tween 20. For DPP11s, different concentrations (1.56, 3.13, 6.25, 12.5, 25, 50, and 100 µM) of dipeptides as the inhibitor and 100 µM Leu-Asp-MCA (Peptide Institute, Osaka, Japan) as the substrate were used. The enzyme reaction was performed at 298 K for 20 min and standard deviations were calculated from three independent experiments. Half-maximal inhibitory concentration (IC50) values were determined by fitting to a sigmoid curve (4-parameter logistic curve) using ImageJ software[35] and inhibition constants (Ki) were calculated using the Cheng-Prusoff Equation[36]. The fluorescence intensity of the released MCA was measured with the same method of determination of kinetics parameters toward dipeptidyl MCA.

In a further test the target is wild-type SmDPP7. As to the kind of experiment: Isothermal titration calorimetry of dipeptide binding. Further details: species or system Stenotrophomonas maltophilia. The conditions noted are these: ITC, 50 mM sodium phosphate pH 7.0, 2.5% dimethyl sulfoxide, 25 °C. The method, then: Figure 6 Thermodynamic parameters of dipeptide binding of SmDPP7. The value of thermodynamic parameters is represented in Table S3. The dissociation constant (Kd) and heats of binding (ΔH) were obtained using MICROCAL PEAQ-ITC Analysis software (Malvern, UK). Gibbs free energy (ΔG) and entropy energy (ΔS) were calculated according to the equation, ΔG = − RT ln Ka = RT ln Kd (Ka = 1/ Kd, association constants). Standard deviations were obtained from three independent experiments.
The bindings were analysed using a MICROCAL PEAQ-ITC microcalorimeter (Malvern, UK). The binding reactions were performed in 50 mM sodium phosphate pH 7.0 and 2.5% dimethyl sulfoxide at 25 °C and were stirred at 750 rpm. A single injection of 0.4 μl and 19 times injections of 2.0 μl of the dipeptide solution were injected into 350 μl of enzyme solution (wild-type SmDPP7). The wild-type SmDPP7 concentration was 25 µM and the concentration of each dipeptide solution was 250 µM in reaction buffer. Each injection was performed for 4 s with an interval of 150 s between injections. The dissociation constant (Kd) and heats of binding (ΔH) were obtained using MICROCAL PEAQ-ITC Analysis software (Malvern, UK). Gibbs free energy (ΔG) values were calculated according to ΔG = − RT ln Ka = RT ln Kd (Ka = 1/ Kd, association constants).

For the compound `CC(C)[C@H](N)C(=O)N[C@@H](Cc1ccc(O)cc1)C(=O)O` [Val-Tyr] (H-Val-Tyr-OH), affinity at SmDPP7 was put at a Ki of 55.2 ± 0.5 µM. Also, the Kd at wild-type SmDPP7 is greater than 40 µM.
In the case of Tyr-Tyr, in the test on SmDPP7 (200 µM Xaa-Tyr dipeptide and 200 µM Tyr-Tyr-MCA, Fig. 1), the “Effect on hydrolytic activity of SmDPP7 (residual activity)” value is recorded as “markedly inhibited”. Moreover, the Ki on SmDPP7 worked out at 7.66 ± 1.27 µM. The compound further yielded a Kd on wild-type SmDPP7 of 6.17 ± 0.39 µM.
